In US5681823A, “P^1, P^4 -dithio-P^2 -P^3 -monochloromethylene 5', 5'"-diadenosine P^1, P^4 -tetraphosphate as antithrombotic agent” (PRP Inc., priority 1996, dated 1997):
Read-outs that look alike come from different tables or passages of the source.

Key:
Assay type in all cases: cell-based, human
platelet aggregation = assay: Platelet aggregation induced by ADP and agonists other than ADP; conditions: for IC50: Homo sapiens, Platelet; for effect on collagen-induced aggregation: agonist collagen, in words; for effect on ristocetin-induced platelet aggregation: agonist ristocetin; for effect on thrombin-induced platelet aggregation: agonist thrombin
Protocol: (§1) Unless otherwise provided below, the experimental procedures were performed according to the procedures provided in U.S. Pat. No. 5,049.550 (Zamecnik '550), the entire contents of which are incorporated herein by reference. Some alternative procedures (e.g., release reaction, PF3 assays) and a number of additional studies also are provided (e.g., cytoplasmic calcium mobilization, fibrinogen binding site, agonists other than ADP, platelet cAMP and distribution of CHCl-AP4 A into blood components). Blood was collected in a 0.1 volume of 3.8% sodium citrate from healthy human volunteers who had abstained from antiplatelet agents for at least 10 days. Platelet rich plasma (PRP) was separated by a gradual centrifugation and adjusted to 3.3×10^8 platelets per ml plasma. PRP has been utilized in the Examples unless otherwise stated.
The release reaction appears to be a unique response following platelet activation. ADP, among several platelet constituents, appears to play an important role in the enhancement of activation. We have examined the role of ADP that is released in platelet aggregation induced by other agonists including arachidonic acid, collagen, epinephrine, thrombin and ristocetin. Platelet aggregability induced by a given concentration of agonists was approximately 60-80% in absence of agents. […] This finding supports the above-described observations of the inhibitory effects of the agents on the release reaction.

[1] = tested on: ADP-induced platelet aggregation; assay: Time-dependent effects on ADP-induced aggregation (stability of the agents by functional assay in PRP); conditions: for ADP-induced aggregation: 10 μM ADP; for stability of inhibitory effect / agent in PRP: 37° C., up to 3 hours, in words
Protocol: as §1
To observe the stability of the agents by functional assay, PRP was incubated with 2.51 μM thio-CHCl-AP4 A or 5 μM CHCl-AP4 A at 37° C. for 3 hours. The concentrations of inhibiting agents used in this experiment were relatively low, especially for the thio compound. Samples taken at the times indicated were tested for ADP-induced (10 μM) aggregation.

Platelet Factor 3 (PF3) = assay: Platelet factor 3 (PF3) activation, Stypven clotting time; conditions: for Clotting Time (Stypven), ADP-stimulated PF3 activity / Net Change of clotting time / activity at 10 µM: 10 μM agent, 10 μM ADP; for Clotting Time (Stypven), ADP-stimulated PF3 activity: mean of two, baseline 45.8, saline control 38.9; for Net Change of clotting time: saline control -6.9; for activity at 10 µM: Homo sapiens, Platelet, 5 min, saline control 100, read-out: % Change of clotting time
Protocol: PF3 activity of the platelets is enhanced by ADP stimulation and measured by the Stypven clotting time (P. Zamecnik et al., PNAS (USA) 89:2370-2373 (1992)). The data represent a mean of two experiments. Fresh normal human platelet-rich plasma (3×10^8 platelets per ml) was preincubated in the presence or absence of the agents (10 μM) at 37° C. for 5 min and then tested for PF3 activity of the platelets that was stimulated by 10 μM ADP.

[2] = tested on: ADP and collagen induced platelet aggregation; assay: Platelet aggregation in lumiaggregometer (ADP or collagen); conditions: for IC50: Homo sapiens, Platelet, lumiaggregometer
Protocol: (§2) The effects of thio-CHCl-AP4 A and the reference agent on both ADP and collagen induced platelet aggregation, and release reaction were tested in a lumiaggregometer. Normal human PRP was separated from sodium […] anticoagulated (0.38%) blood. Platelet aggregation and release reaction induced by 5 μM ADP or 1 μg collagen/ml. The lumiaggregometer was equipped to assay both platelet aggregation and the luciferase reaction of ATP simultaneously a) in the absence of agent (control); and b) in the presence of various concentrations of thio-CHCl-AP4 A or CHCl-AP4 A. The measured amount of ATP released from the activated platelets by the agonist represents the release reaction. The luminescence produced by the luciferin-luciferase reaction was linear with respect to the amount of ATP released.

[3] = tested on: fibrinogen receptor (GPIIb/IIIa); assay: Fibrinogen binding sites on ADP-activated platelets (FITC-anti-fgn, flow cytometer); conditions: for % binding (fibrinogen bound on ADP-activated platelets): 5 μM ADP
Protocol: Platelet responses to the agonists include in addition to aggregation a) release reaction, b) fibrinogen receptor silos (GPIIb/IIIa) and, c) platelet factor 3 activation. The effects of thio-CHCl-AP4 A and the reference agent (CHCl-AP4 A, compound E10 of Zamecnik '550) were tested on each of these responses.
Platelet surface receptors for fibrinogen are known to be increased by activation. The effects of thio-CHCl-AP4 A and CHCl-AP4 A on fibrinogen binding sites of activated platelets were assayed by means of Fluorescein isothiocyanate conjugated antifibrinogen antibody (FITC-anti-fgn) techniques in a flow cytometer (FACS, Becton-Dickinson). PRP was used at 1:20 final dilution. Platelets were activated by ADP in the presence or absence of the agents at 22° C. for 5 min. After incubation of activated platelets with FITC-Anti-Fgn at 22° C. for 10 min., 0.5 ml of 0.2% formyl saline (0.2% formaldehyde in 0.9% NaCl) was added to inhibit further activation. Samples included platelets that were a) unstimulated; b) stimulated with 5 μM ADP; c) exposed to agents (CHCl-AP4 A or thio-CHCl-AP4 A) for 5 minutes before ADP stimulation.

[4] = tested on: Platelet release reaction; assay: Platelet release reaction (ATP, luciferin-luciferase, lumiaggregometer); conditions: for IC50: Homo sapiens, Platelet, lumiaggregometer
Protocol: as §2

[5] = tested on: ADP-induced platelet aggregability; assay: Ability to aggregate of platelets exposed previously to the agents, resuspended in inhibitor-free plasma; conditions: for activity at 25 µM: preincubated 25 μM agent
Protocol: as §1
We believe that the inhibition mechanism of AP4 A analogues involves competing with ADP for binding to the platelet purinoceptor. To test the stability and inhibitory effects of the bound agent, platelet-rich plasma anticoagulated with ACD solution was preincubated with 25 μM thio-CHCl-AP4 A or 50 μM CHCl-AP4 A at 22° C. for 30 minutes. Platelets isolated by gel-column filtration (2×10^8 cells/ml) or centrifugation (3×10^8cells/ml) were resuspended in the inhibitor-free plasma and ADP-induced aggregability was measured. The values represent a mean of three experiments for the series of gel-filtration separation and a mean of two experiments for the centrifugation separation.

[6] = agonist Arachidonic Acid (1 mM)
[7] = compared to CHCl-AP4 A, in words

Row | SMILES | IC50 (platelet aggregation; agonist ADP (5 μM)) | IC50 (platelet aggregation; [6]) | IC50 (platelet aggregation; agonist Collagen (μg)) | IC50 (platelet aggregation; agonist Epinephrine (10 μM)) | effect on collagen-induced aggregation (platelet aggregation) | effect on ristocetin-induced platelet aggregation (platelet aggregation) | effect on thrombin-induced platelet aggregation (platelet aggregation) | stability of inhibitory effect / agent in PRP [1] | Clotting Time (Stypven), ADP-stimulated PF3 activity (Platelet Factor 3 (PF3)) | Net Change of clotting time (Platelet Factor 3 (PF3)) | activity at 10 µM (Platelet Factor 3 (PF3)) | IC50 ([2]; agonist 5 μM ADP) | IC50 ([2]; agonist collagen 1 μg/ml) | % binding (fibrinogen bound on ADP-activated platelets) ([3]; 2.5 μM agent) | % binding (fibrinogen bound on ADP-activated platelets) ([3]; 5.0 μM agent) | IC50 ([4]; agonist 5 μM ADP) | IC50 ([4]; agonist collagen 1 μg/ml) | other results
1 | Nc1ncnc2c1ncn2[C@@H]1O[C@H](COP(=O)(O)OP(=O)(O)C(Cl)P(=O)(O)OP(=O)(O)OC[C@H]2O[C@@H](n3cnc4c(N)ncnc43)[C@H](O)[C@@H]2O)[C@@H](O)[C@H]1O (some centres unmarked) [CHCl-AP4 A] | 3.28 µM | 19 µM | > 100 µM | 24 µM | unaffected | Neither thio-CHCl-AP4 A nor CHCl-AP4 A affected | Neither thio-CHCl-AP4 A nor CHCl-AP4 A affected | becomes unstable when it is kept in PRP more than 60 minutes at 37 °C | 43.1 s | -2.7 | 39.1% | 14 µM | > 100 µM | 70.9 % binding | 41.3 % binding | 4.5 µM | 35 µM | ADP-induced aggregation ([1]; 5 μM agent, 0 min in PRP at 37° C., without agent 82%): 13%; ADP-induced aggregation ([1]; 5 μM agent, 60 min in PRP at 37° C., without agent 69%): 31%; ADP-induced aggregation ([1]; 5 μM agent, 120 min in PRP at 37° C., without agent 59%): 47%; ADP-induced aggregation ([1]; 5 μM agent, 180 min in PRP at 37° C., without agent 43%): 42%; effect on collagen-induced aggregation ([2]; agonist collagen, in words): not inhibited; % binding (fibrinogen bound on ADP-activated platelets) ([3]; 7.5 μM agent): 36.1 % binding; % binding (fibrinogen bound on ADP-activated platelets) ([3]; 10 μM agent): 23.8 % binding; effect on collagen-induced release reaction ([4]; agonist collagen, in words): inhibited; activity at 50 µM ([5]; Homo sapiens, Platelet, 0.5 h, centrifugation, 20 μM ADP, preincubated 50 μM agent, 22° C., 30 min, mean of two, read-out: Aggregability (% of control)): 92%; inhibition in the ability to aggregate following exposure to ADP ([5]; preincubated 50 μM CHCl-AP4 A): 8%
2 | Nc1ncnc2c1ncn2[C@@H]1O[C@H](COP(O)(=S)OP(=O)(O)C(Cl)P(=O)(O)OP(O)(=S)OC[C@H]2O[C@@H](n3cnc4c(N)ncnc43)[C@H](O)[C@@H]2O)[C@@H](O)[C@H]1O (some centres unmarked) [Thio-CHCl-AP4 A, P^1, P^4 -dithio -P^2 -P^3 monochloromethylene 5', 5'" diadenosine P^1, P^4 -tetraphosphate] | 0.81 µM | 9.12 µM | 9 µM | 5.25 µM | detectable inhibitory effect | Neither thio-CHCl-AP4 A nor CHCl-AP4 A affected | Neither thio-CHCl-AP4 A nor CHCl-AP4 A affected | very stable for at least a 3 hour period | 44.5 s | -1.3 | 18.8% | 1.6 µM | 9 µM | 9.9 % binding | 5.3 % binding | 0.7 µM | 1.7 µM | ADP-induced aggregation ([1]; 2.5 μM agent, 0 min in PRP at 37° C., without agent 82%): 21%; ADP-induced aggregation ([1]; 2.5 μM agent, 60 min in PRP at 37° C., without agent 69%): 7%; ADP-induced aggregation ([1]; 2.5 μM agent, 120 min in PRP at 37° C., without agent 59%): 5%; ADP-induced aggregation ([1]; 2.5 μM agent, 180 min in PRP at 37° C., without agent 43%): 6%; inhibitory effect on ADP-stimulated PF3 activity (Platelet Factor 3 (PF3); [7]): significantly greater than that of the non-thio reference agent; inhibition of fibrinogen bound on ADP-activated platelets [3, 7]: inhibited preferentially; activity at 25 µM ([5]; Homo sapiens, Platelet, 0.5 h, centrifugation, 20 μM ADP, 22° C., 30 min, mean of two, read-out: Aggregability (% of control)): 67%; activity at 25 µM ([5]; Homo sapiens, Platelet, 0.5 h, gel-filtration, 10 μM ADP, 22° C., 30 min, mean of three, read-out: Aggregability (% of control)): 78%; inhibition in the ability to aggregate following exposure to ADP ([5]; preincubated 25 μM thio-CHCl-AP4 A): 22-33%
